Laboratory results published in PMC5065787 (Bioorganic & medicinal chemistry, 2016).
Changes are numbered by the printed parent chain.

Legend:
h15-LOX-1 F414W = target: T1, h15-LOX-1 F414W (Homo sapiens, UniProt P16050, F414W); test: Steady-state substrate kinetics, F414W; format: biochemical; details: error in parentheses, no unit in table (sec^−1)
T1 sequence (P16050 1-662 F414W): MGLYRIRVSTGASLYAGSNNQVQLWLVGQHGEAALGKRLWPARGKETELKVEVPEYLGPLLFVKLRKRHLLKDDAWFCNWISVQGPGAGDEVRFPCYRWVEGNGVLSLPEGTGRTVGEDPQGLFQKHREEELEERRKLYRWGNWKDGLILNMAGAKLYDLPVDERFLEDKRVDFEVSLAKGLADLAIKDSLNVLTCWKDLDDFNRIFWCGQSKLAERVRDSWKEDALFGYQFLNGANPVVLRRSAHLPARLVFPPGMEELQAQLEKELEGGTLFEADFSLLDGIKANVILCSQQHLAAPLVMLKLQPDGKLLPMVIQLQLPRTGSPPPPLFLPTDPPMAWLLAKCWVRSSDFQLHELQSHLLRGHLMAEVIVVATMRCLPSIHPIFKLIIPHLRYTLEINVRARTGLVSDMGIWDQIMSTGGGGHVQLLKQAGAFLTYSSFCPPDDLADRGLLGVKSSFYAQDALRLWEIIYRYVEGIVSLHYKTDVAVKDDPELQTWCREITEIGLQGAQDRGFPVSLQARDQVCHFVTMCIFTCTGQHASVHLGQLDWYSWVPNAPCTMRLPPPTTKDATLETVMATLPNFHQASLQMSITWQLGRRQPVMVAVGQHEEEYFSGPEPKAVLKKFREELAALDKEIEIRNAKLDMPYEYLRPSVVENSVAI

h15-LOX-1 F414I = target: T2, h15-LOX-1 F414I (Homo sapiens, UniProt P16050, F414I); test: Steady-state substrate kinetics, F414I; format: biochemical; details: error in parentheses, no unit in table (sec^−1)
T2 sequence (P16050 1-662 F414I): T1 sequence (P16050 1-662 F414W) with W414I

Q: For CCCCC/C=C\C/C=C\C/C=C\C/C=C\CCCC(=O)O [AA, arachidonic acid], which kcat (h15-LOX-1 F414W) is on record?
A: 2.8 (0.08)

Q: What about the kcat (h15-LOX-1 F414I) of the same compound?
A: 1.8 (0.05)
